In patent US20240408169A1 (priority 2023, published 2024):
pIC50: −log10 of the molar value. *1 amine or outer side, *2 acyl side, *3 side chain or, on linkers, in order; H or OH if unused. Where a SMILES comes first, the peptide text is derived from it. Bridges are numbered along the chain shown (N, C = ends). [ ]: non-standard residue; d: D form. The star is where a group is joined. NMeAla(5-Cl-2-cPrO-3-pyridyl) = CN[C@@H](Cc1cc(Cl)cnc1OC1CC1)C(=O)O; X58 = CC(C)C(=O)N1CC=C(c2ccc(Cl)cc2C[C@@H](C(=O)[*:2])N(C)[*:1])CC1; X54 = CN([C@@H](Cc1cc(F)ccc1-c1cnn(C2CCC2)c1)C(=O)[*:2])[*:1]; X68 = CN([C@@H](Cc1cc(Cl)ccc1-c1cnn(C2CC2)c1)C(=O)[*:2])[*:1]; NMehhhLys(Me) = CN([C@@H](CCCCCCCN(C)[*:3])C(=O)[*:2])[*:1]; NMe(hhhLys) = CN([C@@H](CCCCCCCN[*:3])C(=O)[*:2])[*:1]; Cyclobutanecarbonyl(1-CF3) = O=C(C1(C(F)(F)F)CCC1)*; cBuCO(3,3-F2-1-CF3) = O=C(C1(C(F)(F)F)CC(F)(F)C1)*; Pro(trans-4-F) = O=C(O)[C@@H]1C[C@@H](F)CN1; Gly(cPr) = N[C@H](C(=O)O)C1CC1

Legend:
[1] = target: T1, CyclinA2/CDK2 (Homo sapiens, UniProt P20248); assay: Fluorescence Polarization (FP) competitive binding assay, Cyclin A2/Cdk2; conditions: 8 nM Cyclin A2/Cdk2, 2 nM FAM probe; average of 2-3 independent experiments; read-out: Cyclin A FP IC50;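 further: plates equilibrated two hours at room temperature before polarization reading, IC50 fitted from eight-concentration compound titration curves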
T1 construct: purchased CRELUX Protein Services

[2] = target: T2, CyclinB1/CDK1 (Homo sapiens, UniProt P14635); assay: Fluorescence Polarization (FP) competitive binding assay, Cyclin B1/Cdk1; conditions: 10 nM Cyclin B1/Cdk1, 2 nM FAM probe; average of 2-3 independent experiments; read-out: Cyclin B FP IC50;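 further: fluorescence polarization read after equilibration at room temperature, with IC50 taken from serially diluted dose-response curves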
T2 construct: purchased Eurofins, discovery 14-450

[3] = target: T3, CyclinE1/CDK2 (Homo sapiens, UniProt P24864); assay: Fluorescence Polarization (FP) competitive binding assay, Cyclin E1/Cdk2; conditions: 10 nM Cyclin E1/Cdk2, 2 nM FAM probe; average of 2-3 independent experiments; read-out: Cyclin E FP IC50;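 further: readings taken after two-hour equilibration at room temperature in HEPES buffer with NaCl, DTT, NP-40 and BSA, IC50 fitted from eight-concentration serial dilution series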
T3 construct: purchased Eurofins, discovery 14-475

[4] = system: WI-38 cells; assay: MTT proliferation assay, WI-38; assay type: cell-based; conditions: 3 days compound exposure, 1:3 serial dilution starting at 10 μM;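 further: Eight- or ten-point dilution series, with exposure length chosen to span about three to four cell doublings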
[5] = system: NCI-H1048 cells; assay: MTT proliferation assay, NCI-H1048; assay type: cell-based; conditions: 5 days compound exposure, 1:3 serial dilution starting at 10 μM;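 further: Dose-response in 96-well plates over 8 or 10 concentration points, with exposure spanning 3-4 cell doublings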
[6] = system: OVCAR3 cells; assay: MTT proliferation assay, OVCAR3; assay type: cell-based; conditions: 5 days compound exposure, 1:3 serial dilution starting at 10 μM;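 further: compound given as an 8- or 10-point series, one day after plating, with exposure covering roughly 3-4 cell doublings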

Row | SMILES | pIC50 [1] | pIC50 [2] | pIC50 [3] | GI50 [4] [nM] | GI50 [5] [nM] | GI50 [6] [nM]
1 | CC(C)C[C@@H]1NC(=O)[C@@H](N(C)C(=O)[C@@H](NC(=O)[C@@H]2C[C@@H](F)CN2C(=O)C2(C(F)(F)F)CC(F)(F)C2)C2CC2)CC=CCCCCNC(=O)[C@H](Cc2cc(Cl)ccc2C2=CCN(C(=O)C3CC3)CC2)N(C)C1=O [Example 89] | 6.92 | 7.70 | 5.27 | 4340 | 310 | 380
2 | CC(C)C[C@@H]1NC(=O)[C@@H](N(C)C(=O)[C@@H](NC(=O)[C@@H]2C[C@@H](F)CN2C(=O)C2(C(F)(F)F)CC(F)(F)C2)C2CC2)CC=CCCCCNC(=O)[C@H](Cc2cc(Cl)ccc2C2=CCN(C(=O)C(C)C)CC2)N(C)C1=O [Example 90] | 7.05 | 7.70 | 5.43 | 4130 | 260 | 230
3 | CC(C)C[C@@H]1NC(=O)[C@@H](N(C)C(=O)[C@@H](NC(=O)[C@@H]2C[C@@H](F)CN2C(=O)C2(C(F)(F)F)CC(F)(F)C2)C2CC2)CCCCCCCN(C)C(=O)[C@H](Cc2cc(F)ccc2-c2cnn(C3CCC3)c2)N(C)C1=O [Example 96] ({cBuCO(3,3-F2-1-CF3)}-[Pro(trans-4-F)][Gly(cPr)][NMehhhLys(Me)]L[X54]; lactam 3-C) | 7.70 | 7.70 | 6.92 | 8920 | 10 | 10
4 | CC(C)C[C@@H]1NC(=O)[C@@H](N(C)C(=O)[C@@H](NC(=O)[C@@H]2C[C@@H](F)CN2C(=O)C2(C(F)(F)F)CC(F)(F)C2)C2CC2)CCCCCCCNC(=O)[C@H](Cc2cc(Cl)ccc2C2=CCN(C(=O)C(C)C)CC2)N(C)C1=O [Example 98] ({cBuCO(3,3-F2-1-CF3)}-[Pro(trans-4-F)][Gly(cPr)][NMe(hhhLys)]L[X58]; lactam 3-C) | 7.70 | 7.70 | 5.96 | 16400 | 20 | 20
5 | CC(C)C[C@@H]1NC(=O)[C@@H](N(C)C(=O)[C@@H](NC(=O)[C@@H]2C[C@@H](F)CN2C(=O)C2(C(F)(F)F)CCC2)C2CC2)CC=CCCCCN(C)C(=O)[C@H](Cc2cc(Cl)cnc2OC2CC2)N(C)C1=O [Example 106] | 6.92 | 7.70 | 6.62 | 6390 | 410 | 540
6 | CC(C)C[C@@H]1NC(=O)[C@@H](N(C)C(=O)[C@@H](NC(=O)[C@@H]2C[C@@H](F)CN2C(=O)C2(C(F)(F)F)CCC2)C2CC2)CCCCCCCN(C)C(=O)[C@H](Cc2cc(Cl)cnc2OC2CC2)N(C)C1=O [Example 109] ({Cyclobutanecarbonyl(1-CF3)}-[Pro(trans-4-F)][Gly(cPr)][NMehhhLys(Me)]L[NMeAla(5-Cl-2-cPrO-3-pyridyl)]; lactam 3-C) | 7.40 | 7.70 | 6.77 | 9520 | 20 | 20
7 | CC(C)C[C@@H]1NC(=O)[C@@H](N(C)C(=O)[C@@H](NC(=O)[C@@H]2C[C@@H](F)CN2C(=O)C2(C(F)(F)F)CC(F)(F)C2)C2CC2)CCCCCCCN(C)C(=O)[C@H](Cc2cc(Cl)ccc2-c2cnn(C3CC3)c2)N(C)C1=O [Example 110] ({cBuCO(3,3-F2-1-CF3)}-[Pro(trans-4-F)][Gly(cPr)][NMehhhLys(Me)]L[X68]; lactam 3-C) | 7.70 | 7.70 | 6.48 | 4800 | 10 | 10
